Source: publication PMC7531004, “Discovery of gramicidin A analogues with altered activities by multidimensional screening of a one-bead-one-compound library” (Nature Communications, 2020)
Where a SMILES comes first, the peptide text is derived from it. [ ]: non-standard residue; d: D form. The star is where a group is joined. NHCH2CH2OH = OCCN*; For = O=C*

What was measured:
[1] = H+/Na+ transport assay of bead-derived peptides (one-point); assay type: biochemical; parameters: key: relative activity; mean of two control wells = 1.00; settings: bead-derived peptide solution, EYPC/EYPG LUVs;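 also: relative to parent gramicidin A activity set to 1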
Procedure, shortened: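 Values are normalized fluorescence, with Triton X-100 defining 100% and untreated LUVs 0%, and the two control wells averaging 1.00. Vesicles carried 1.0 mM pyranine and included egg yolk phosphatidylglycerol. Peptides were incubated with them 30 min at room temperature.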

[2] = system: Streptococcus pyogenes SSI-9; experiment: Antibacterial activity assay of bead-derived peptides (three concentrations); assay type: cell-based; parameters: key: +++: inhibition by the 640-fold diluted peptide solution; ++: inhibition by the 160-fold diluted solution; +: inhibition by the 40-fold diluted solution; -: no inhibition; settings: S. pyogenes, bead-derived peptide solution, three concentrations
Procedure, shortened: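 Growth inhibition scored visually as precipitated bacteria after 37 °C, 18 h incubation. Streptococcus pyogenes SSI-9 inoculum of 2 × 10^5 CFU in Ca2+/Mg2+-adjusted Mueller Hinton broth plus 5% laked horse blood; peptides tested at three levels: stock, 4-fold and 16-fold DMSO dilutions.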

[3] = cell viability/%
Procedure, shortened: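 Peptide stocks diluted 250× in growth medium; P388 cells 1 × 10^4 cells/mL final; 37 °C, 5% CO2, 92 h. WST-1 + 1-methoxy PMS, 4 h, A415. Output: % viability.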

SMILES | H+/Na+ transport activity normalized against the value of 1 (1.00) [1] | antibacterial activity [2] | viability [3]
CC(C)C[C@@H](NC(=O)[C@H](Cc1c[nH]c2ccccc12)NC(=O)[C@H](NC(=O)[C@H](Cc1c[nH]c2ccccc12)NC(=O)[C@H](NC(=O)[C@@H](NC(=O)[C@H](NC(=O)[C@H](C)NC(=O)[C@H](NC(=O)[C@H](C)NC(=O)CNC(=O)[C@@H](NC=O)C(C)C)C(C)C)C(C)C)C(C)C)[C@H](C)O)C(C)C)C(=O)N[C@@H](Cc1c[nH]c2ccccc12)C(=O)N[C@@H](C(=O)N[C@@H](Cc1c[nH]c2ccccc12)C(=O)NCCO)C(C)C [compound 10506] (For-VGA[dV]A[dV]V[dT]W[dV]W[dL]W[dV]W-NHCH2CH2OH) | 1.18 | - | 91.3%
CC(C)C[C@@H](NC(=O)[C@H](C)NC(=O)[C@H](NC(=O)[C@H](C)NC(=O)CNC(=O)[C@@H](NC=O)C(C)C)C(C)C)C(=O)N[C@H](C(=O)N[C@H](CC(C)C)C(=O)N[C@@H](Cc1c[nH]c2ccccc12)C(=O)N[C@H](CC(C)C)C(=O)N[C@@H](Cc1c[nH]c2ccccc12)C(=O)N[C@@H](C(=O)N[C@@H](Cc1c[nH]c2ccccc12)C(=O)N[C@@H](C(=O)N[C@@H](Cc1c[nH]c2ccccc12)C(=O)NCCO)C(C)C)[C@H](C)O)C(C)C [compound 2117] (For-VGA[dV]A[dL]V[dL]W[dL]W[dT]W[dV]W-NHCH2CH2OH) | 1.15 | + | 100%
CC(C)C[C@@H](NC(=O)[C@H](C)NC(=O)CNC(=O)[C@@H](NC=O)C(C)C)C(=O)N[C@@H](C)C(=O)N[C@@H](C(=O)N[C@H](C(=O)N[C@H](CC(C)C)C(=O)N[C@@H](Cc1c[nH]c2ccccc12)C(=O)N[C@@H](C(=O)N[C@@H](Cc1c[nH]c2ccccc12)C(=O)N[C@H](CC(C)C)C(=O)N[C@@H](Cc1c[nH]c2ccccc12)C(=O)N[C@H](CC(C)C)C(=O)N[C@@H](Cc1c[nH]c2ccccc12)C(=O)NCCO)C(C)C)C(C)C)[C@H](C)O [compound 611] (For-VGA[dL]A[dT]V[dL]W[dV]W[dL]W[dL]W-NHCH2CH2OH) | 1.05 | - | 100%
CC(C)C[C@@H](NC(=O)[C@@H](NC(=O)[C@H](NC(=O)[C@H](C)NC(=O)[C@H](NC(=O)[C@H](C)NC(=O)CNC(=O)[C@@H](NC=O)C(C)C)[C@H](C)O)C(C)C)C(C)C)C(=O)N[C@@H](Cc1c[nH]c2ccccc12)C(=O)N[C@@H](C(=O)N[C@@H](Cc1c[nH]c2ccccc12)C(=O)N[C@@H](C(=O)N[C@@H](Cc1c[nH]c2ccccc12)C(=O)N[C@@H](C(=O)N[C@@H](Cc1c[nH]c2ccccc12)C(=O)NCCO)C(C)C)C(C)C)C(C)C [compound 3019] (For-VGA[dT]A[dV]V[dL]W[dV]W[dV]W[dV]W-NHCH2CH2OH) | 1.12 | - | 100%
CC(C)[C@H](NC=O)C(=O)NCC(=O)N[C@@H](C)C(=O)N[C@@H](C(=O)N[C@@H](C)C(=O)N[C@@H](C(=O)N[C@H](C(=O)N[C@@H](C(=O)N[C@@H](Cc1c[nH]c2ccccc12)C(=O)N[C@@H](C(=O)N[C@@H](Cc1c[nH]c2ccccc12)C(=O)N[C@@H](C(=O)N[C@@H](Cc1c[nH]c2ccccc12)C(=O)N[C@@H](C(=O)N[C@@H](Cc1c[nH]c2ccccc12)C(=O)NCCO)C(C)C)C(C)C)C(C)C)C(C)C)C(C)C)C(C)C)C(C)C [compound 4223] (For-VGA[dV]A[dV]V[dV]W[dV]W[dV]W[dV]W-NHCH2CH2OH) | 1.09 | + | 95.6%
CNC(=O)C[C@@H](NC(=O)[C@@H](NC(=O)[C@H](NC(=O)[C@H](C)NC(=O)[C@H](NC(=O)[C@H](C)NC(=O)CNC(=O)[C@@H](NC=O)C(C)C)C(C)C)C(C)C)C(C)C)C(=O)N[C@@H](Cc1c[nH]c2ccccc12)C(=O)N[C@@H](C(=O)N[C@@H](Cc1c[nH]c2ccccc12)C(=O)N[C@H](CC(C)C)C(=O)N[C@@H](Cc1c[nH]c2ccccc12)C(=O)N[C@H](CC(C)C)C(=O)N[C@@H](Cc1c[nH]c2ccccc12)C(=O)NCCO)C(C)C [compound 903] (For-VGA[dV]A[dV]V[dD](NHMe)W[dV]W[dL]W[dL]W-NHCH2CH2OH) | 1.15 | - | 89.7%
CC(C)C[C@@H](NC(=O)[C@@H](NC(=O)[C@H](NC(=O)[C@H](C)NC(=O)[C@H](NC(=O)[C@H](C)NC(=O)CNC(=O)[C@@H](NC=O)C(C)C)C(C)C)C(C)C)C(C)C)C(=O)N[C@@H](Cc1c[nH]c2ccccc12)C(=O)N[C@@H](C(=O)N[C@@H](Cc1c[nH]c2ccccc12)C(=O)N[C@@H](C(=O)N[C@@H](Cc1c[nH]c2ccccc12)C(=O)N[C@@H](C(=O)N[C@@H](Cc1c[nH]c2ccccc12)C(=O)NCCO)[C@H](C)O)C(C)C)C(C)C [compound 7050] (For-VGA[dV]A[dV]V[dL]W[dV]W[dV]W[dT]W-NHCH2CH2OH) | 1.21 | - | 100%
CC(C)C[C@@H](NC(=O)[C@H](C)NC(=O)CNC(=O)[C@@H](NC=O)C(C)C)C(=O)N[C@@H](C)C(=O)N[C@H](CC(C)C)C(=O)N[C@H](C(=O)N[C@@H](C(=O)N[C@@H](Cc1c[nH]c2ccccc12)C(=O)N[C@H](CC(C)C)C(=O)N[C@@H](Cc1c[nH]c2ccccc12)C(=O)N[C@@H](C(=O)N[C@@H](Cc1c[nH]c2ccccc12)C(=O)N[C@@H](C(=O)N[C@@H](Cc1c[nH]c2ccccc12)C(=O)NCCO)C(C)C)C(C)C)C(C)C)C(C)C [compound 2557] (For-VGA[dL]A[dL]V[dV]W[dL]W[dV]W[dV]W-NHCH2CH2OH) | 1.21 | ++ | 31%
CC(C)C[C@@H](NC(=O)[C@H](C)NC(=O)CNC(=O)[C@@H](NC=O)C(C)C)C(=O)N[C@@H](C)C(=O)N[C@@H](C(=O)N[C@H](C(=O)N[C@@H](C(=O)N[C@@H](Cc1c[nH]c2ccccc12)C(=O)N[C@@H](C(=O)N[C@@H](Cc1c[nH]c2ccccc12)C(=O)N[C@@H](C(=O)N[C@@H](Cc1c[nH]c2ccccc12)C(=O)N[C@H](CC(C)C)C(=O)N[C@@H](Cc1c[nH]c2ccccc12)C(=O)NCCO)C(C)C)C(C)C)[C@H](C)O)C(C)C)C(C)C [compound 285] (For-VGA[dL]A[dV]V[dT]W[dV]W[dV]W[dL]W-NHCH2CH2OH) | 1.08 | - | 100%
CNC(=O)C[C@@H](NC(=O)[C@@H](NC(=O)[C@@H](CC(C)C)NC(=O)[C@H](C)NC(=O)[C@H](NC(=O)[C@H](C)NC(=O)CNC(=O)[C@@H](NC=O)C(C)C)C(C)C)C(C)C)C(=O)N[C@@H](Cc1c[nH]c2ccccc12)C(=O)N[C@@H](C(=O)N[C@@H](Cc1c[nH]c2ccccc12)C(=O)N[C@H](CC(C)C)C(=O)N[C@@H](Cc1c[nH]c2ccccc12)C(=O)N[C@H](CC(C)C)C(=O)N[C@@H](Cc1c[nH]c2ccccc12)C(=O)NCCO)C(C)C [compound 603] (For-VGA[dV]A[dL]V[dD](NHMe)W[dV]W[dL]W[dL]W-NHCH2CH2OH) | 1.10 | - | 100%
